From patent US20200022995A1, “Novel Immunodulating Small Molecules” (AyuVis Research, Inc., priority 2018, published 2020)
Converted amounts (≈) assume the structure as drawn.

How the values were obtained:
THP-1 cells = assay: Monocyte differentiation, phagocytosis and intracellular killing of Pseudomonas aeruginosa in THP-1 cells; format: cell-based, human
Excerpt: Two of these compounds 8 and 32 stimulated monocyte differentiation into macrophages, increased phagocytosis of Pseudomonas aeruginosa (FIG. 18) and increased intracellular killing of bacteria (FIG. 19). These compounds have potential to be used as vaccine adjuvants and in combination with existing antibiotic for prophylactic treatment such as in cystic fibrosis patients.

TLR7/8 = assay: IL-1β ELISA in hPBMC, alone or with TLR7/8 ligand CL075; format: cell-based, human
Excerpt: Compound 8 modulates the TLR7/8 activities in a concentration dependent manner.

TLR1/2 = target: T1, TLR1/2 (Homo sapiens, UniProt O60603); assay: IL-6 ELISA in hPBMC with TLR1/2 ligand Pam3CSK4; format: cell-based; details: 0.1 μM to <1 μM, 24 h
T1 construct: downregulate the IL-6 protein level in hPBMC after 24 h; endogenous in cells; host or cells: hPBMC
T1 sequence (O60603 21-784): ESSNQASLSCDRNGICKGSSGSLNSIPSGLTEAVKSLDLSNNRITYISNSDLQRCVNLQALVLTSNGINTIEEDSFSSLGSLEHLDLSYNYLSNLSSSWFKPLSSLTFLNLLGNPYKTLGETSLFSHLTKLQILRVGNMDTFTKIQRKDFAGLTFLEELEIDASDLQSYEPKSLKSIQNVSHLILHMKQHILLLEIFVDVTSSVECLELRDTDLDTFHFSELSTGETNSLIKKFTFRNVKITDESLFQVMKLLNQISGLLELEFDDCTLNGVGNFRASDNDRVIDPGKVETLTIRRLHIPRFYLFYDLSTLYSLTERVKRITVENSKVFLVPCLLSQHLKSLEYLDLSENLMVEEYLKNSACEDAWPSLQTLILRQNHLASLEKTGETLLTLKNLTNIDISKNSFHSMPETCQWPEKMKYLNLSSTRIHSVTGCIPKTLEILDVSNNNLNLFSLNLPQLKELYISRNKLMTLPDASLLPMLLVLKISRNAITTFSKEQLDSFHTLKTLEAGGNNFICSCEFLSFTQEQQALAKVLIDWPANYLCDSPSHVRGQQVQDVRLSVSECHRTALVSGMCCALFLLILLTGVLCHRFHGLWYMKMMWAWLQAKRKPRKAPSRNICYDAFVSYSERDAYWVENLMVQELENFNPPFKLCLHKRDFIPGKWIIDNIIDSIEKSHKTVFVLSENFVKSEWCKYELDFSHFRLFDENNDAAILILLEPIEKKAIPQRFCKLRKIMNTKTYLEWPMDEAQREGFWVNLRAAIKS
Excerpt: Compound 8 modulates the TLR1/2 activities in a concentration dependent manner.

TLR9 = target: T2, TLR9 (Homo sapiens, UniProt Q9NR96); assay: IFN-α ELISA in hPBMC with TLR9 ligand ODN2216; format: cell-based; details: 48 h
T2 construct: endogenous in cells; host or cells: hPBMC
T2 sequence (Q9NR96 26-1032): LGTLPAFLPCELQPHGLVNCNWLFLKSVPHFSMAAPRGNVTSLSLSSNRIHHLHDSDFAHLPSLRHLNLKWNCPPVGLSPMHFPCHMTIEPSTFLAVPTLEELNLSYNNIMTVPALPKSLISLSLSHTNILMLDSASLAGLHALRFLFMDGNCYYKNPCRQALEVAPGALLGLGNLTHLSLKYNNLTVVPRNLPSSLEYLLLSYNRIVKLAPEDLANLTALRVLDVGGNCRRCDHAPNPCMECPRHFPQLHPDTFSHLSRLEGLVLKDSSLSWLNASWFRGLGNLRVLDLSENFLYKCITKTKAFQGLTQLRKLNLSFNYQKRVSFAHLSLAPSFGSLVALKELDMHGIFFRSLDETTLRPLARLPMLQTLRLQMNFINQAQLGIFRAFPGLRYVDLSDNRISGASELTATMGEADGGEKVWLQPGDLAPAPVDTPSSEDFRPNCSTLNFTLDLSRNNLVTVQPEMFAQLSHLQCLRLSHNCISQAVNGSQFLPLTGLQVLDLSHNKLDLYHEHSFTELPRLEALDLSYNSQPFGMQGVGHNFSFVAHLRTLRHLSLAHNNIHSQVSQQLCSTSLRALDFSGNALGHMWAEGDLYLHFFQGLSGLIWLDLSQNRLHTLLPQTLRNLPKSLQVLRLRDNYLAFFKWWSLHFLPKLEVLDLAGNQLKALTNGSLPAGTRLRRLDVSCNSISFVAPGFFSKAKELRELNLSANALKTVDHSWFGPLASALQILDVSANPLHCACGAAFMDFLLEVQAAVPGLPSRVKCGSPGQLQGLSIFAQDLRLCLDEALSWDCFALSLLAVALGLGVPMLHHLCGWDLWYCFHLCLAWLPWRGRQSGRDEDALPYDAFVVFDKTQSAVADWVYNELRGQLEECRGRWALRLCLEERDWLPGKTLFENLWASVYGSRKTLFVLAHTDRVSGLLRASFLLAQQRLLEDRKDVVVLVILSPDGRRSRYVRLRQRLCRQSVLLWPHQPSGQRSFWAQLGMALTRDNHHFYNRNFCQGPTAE
Description: Compound 8 antagonizes the TLR9 activities and downregulates the production of IFN-α in combination with TLR9 ligand ODN2216 in hPBMC after 48 h of treatment as detected by ELISA (FIG. 11).

HUVECs = assay: Cytotoxicity in HUVECs (MTT); format: cell-based, human; details: 100 μM, 24 h
Description: Selected TLR2/4 antagonist compounds 2, 6, 7, 8, 14, 17 and 32 were evaluated for cytotoxicity in HUVECs at 100 μM concentration. The cells were treated with compounds and incubated for 24 h. Cell viability was assessed using MTT cell proliferation kit (Promega). All the compounds were not toxic to HUVECs (FIG. 15).

[1] = test system: E. coli, P. aeruginosa, A. baumanni, MRSA; assay: Broth dilution assay against gram negative and gram positive bacteria; format: cell-based
[2] = test system: hyperoxia-induced lung injury in mice; assay: Hyperoxia induced ALI model; format: in vivo, C57BL/6 mice; details: IP, 10 mg/kg
Description: Male C57BL/6 mice (Jackson Laboratories,) 12-15 weeks old, 25-28 gms, housed up to 5 per cage were used.
Hyperoxia induced ALI model: The ARDS model consists of exposing adult mice in 100% oxygen for 48 h followed by injecting with test compounds. Adult mice (N=5) were housed in plexi chamber with a constant and continuous supply of 100% oxygen for 48 h. […] The mice were sacrificed after 48 h to harvest lung tissues and collect (BAL) fluid.

neonatal pups with BPD = assay: Hyperoxia mouse model of BPD (newborn pups); format: in vivo
TLR4 [3] = target: T3, TLR4 (Homo sapiens, UniProt O00206); assay: IL-1β ELISA in hPBMC, alone or with TLR4 ligand LPS; format: cell-based; set-up: endogenous in cells
T3 sequence (O00206 24-839): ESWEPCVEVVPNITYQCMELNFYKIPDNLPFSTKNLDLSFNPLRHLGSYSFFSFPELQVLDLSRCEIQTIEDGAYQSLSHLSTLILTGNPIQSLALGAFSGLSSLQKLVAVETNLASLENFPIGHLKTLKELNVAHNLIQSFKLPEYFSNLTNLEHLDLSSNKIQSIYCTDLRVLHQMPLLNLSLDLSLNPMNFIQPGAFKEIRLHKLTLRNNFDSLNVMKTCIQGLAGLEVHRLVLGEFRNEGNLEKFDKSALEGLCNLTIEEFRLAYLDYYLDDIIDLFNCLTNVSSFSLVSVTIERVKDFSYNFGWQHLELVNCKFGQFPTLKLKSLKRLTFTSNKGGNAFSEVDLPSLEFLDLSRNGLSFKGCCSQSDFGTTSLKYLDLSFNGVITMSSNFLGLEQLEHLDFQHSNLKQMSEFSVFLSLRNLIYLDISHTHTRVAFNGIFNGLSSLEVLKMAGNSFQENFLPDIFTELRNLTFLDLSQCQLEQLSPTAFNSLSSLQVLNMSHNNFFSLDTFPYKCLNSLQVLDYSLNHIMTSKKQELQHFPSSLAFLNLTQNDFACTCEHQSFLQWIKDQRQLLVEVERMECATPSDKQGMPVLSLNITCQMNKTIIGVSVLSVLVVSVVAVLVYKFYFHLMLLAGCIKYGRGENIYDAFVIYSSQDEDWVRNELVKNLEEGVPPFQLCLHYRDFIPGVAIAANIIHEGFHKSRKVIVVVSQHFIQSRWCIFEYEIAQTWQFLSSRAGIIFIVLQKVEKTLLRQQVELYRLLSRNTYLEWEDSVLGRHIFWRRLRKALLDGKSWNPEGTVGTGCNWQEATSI
Excerpt: Compound 8 modulates the TLR4 activities in a concentration dependent manner.

TLR4 [4] = target: T3, TLR4; assay: TLR4 inhibitory and activating activity in THP-1 cells; format: cell-based; set-up: endogenous in cells; host or cells: THP-1 monocytes, PMA-stimulated

`CC(=O)N[C@H]1[C@H](Oc2ccc([N+](=O)[O-])cc2)O[C@H](CO)[C@@H](O)[C@@H]1O` [Compound 8, p-Nitrophenyl 2-acetamido-2-deoxy-β-D-glucopyranoside] was tested, and the “monocyte differentiation into macrophages” value (THP-1 cells) was “stimulated”, the “intracellular killing of bacteria” value (THP-1 cells; Pseudomonas aeruginosa, THP-1 cells) was “increased” and the “phagocytosis of Pseudomonas aeruginosa” value (THP-1 cells; THP-1 cells) was “increased”. For the same compound, the IL-1β protein level (TLR7/8; 0.1 μM to <1 μM, alone or with CL075, hPBMC, 24 h, ELISA) was “downregulate”, the “production of IL-1β” value (TLR7/8; 1.0 μM, alone and with CL075, hPBMC) was “significantly stimulated” and the IL-6 protein level (TLR1/2) was “downregulate”. The “production of IFN-α” value (TLR9) was “downregulates”, the “cytotoxicity in HUVECs” value (HUVECs) was “not toxic” and the MIC90 ([1]; compound alone, range over the bacteria screened) was 50 to 200 µg/mL (≈ 146 to 584 µM). For the same compound, the MIC ([1]; in combination with colistin) was 3.1 to 6.25 µg/mL, the “protection against hyperoxia induced lung injury” value ([2]; 100% oxygen 48 h) was “significant protection” and the hyperoxia-induced lung inflammation ([2]; mice) was “ameliorated”. For the same compound, the “hyperoxia induced BPD in mouse pups” value (neonatal pups with BPD; IP and IV, saline solution, 5 mg/kg or 10 mg/kg on PN2 and PN4) was “prevent”, the “chord length, septal thickness and radial alveolar count of mouse lungs” value (neonatal pups with BPD; IP injection) was “improvement” and the “inflammatory cytokines in lung tissue and serum” value (neonatal pups with BPD; after injection) was “decreased”. The IL-1β protein level (TLR4 [3]; 0.1 μM to <1 μM, alone or with LPS, 24 h, ELISA) was “downregulate”, the “production of IL-1β” value (TLR4 [3]; 1.0 μM, alone and with LPS) was “significantly stimulated” and the “TLR2/4 antagonist or TLR4 agonist activity as shown in Table-1” value (TLR4 [4]) was “potent TLR2/4 antagonists”.
